Results as given in ChEMBL document CHEMBL1139989, “Aminosuberoyl hydroxamic acids (ASHAs): a potent new class of HDAC inhibitors” (Bioorg Med Chem Lett, 2007).

Assays:
[1] = Antiproliferative activity against mouse SC9 cells by MTS assay; assay type: functional, cell-based
[2] = target: Histone deacetylase 1 (Homo sapiens, UniProt Q13547); assay: Inhibition of human HDAC 1
[3] = tested on: HCT-116; assay: Antitumor activity against human HCT116 cells; assay type: functional
[4] = organism: Mus musculus; assay: Decrease in body weight in nude mouse; assay type: functional; parameters: scale not given: the % may be the effect or the level left

Chain of Histone deacetylase 1 (Q13547 whole entry): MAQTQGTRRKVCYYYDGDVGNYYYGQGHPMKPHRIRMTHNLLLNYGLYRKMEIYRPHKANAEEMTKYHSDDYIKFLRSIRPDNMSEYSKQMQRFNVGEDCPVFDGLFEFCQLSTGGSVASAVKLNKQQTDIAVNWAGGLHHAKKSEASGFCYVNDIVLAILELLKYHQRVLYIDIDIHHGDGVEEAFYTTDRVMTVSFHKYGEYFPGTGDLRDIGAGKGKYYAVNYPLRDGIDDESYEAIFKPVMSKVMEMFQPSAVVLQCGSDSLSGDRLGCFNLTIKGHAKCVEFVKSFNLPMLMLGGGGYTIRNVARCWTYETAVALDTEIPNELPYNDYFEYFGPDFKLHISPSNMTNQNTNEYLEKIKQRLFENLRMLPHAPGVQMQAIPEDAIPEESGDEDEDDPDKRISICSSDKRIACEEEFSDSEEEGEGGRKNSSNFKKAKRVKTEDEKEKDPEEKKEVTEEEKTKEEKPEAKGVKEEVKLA

SMILES	IC50 [2]	IC50 [1]	TGI [3]	Activity [4]
O=C(CCCCC[C@H](NC(=O)OCc1ccccc1)C(=O)NCc1ccccc1)NO	0.048 µM	0.412 µM	–	–
O=C(CCCCC[C@H](NC(=O)OCc1ccccc1)C(=O)Nc1cccc2cccnc12)NO	0.0145 µM	0.039 µM	–	–
O=C(CCCCC[C@H](NC(=O)c1ccc2ccccc2n1)C(=O)Nc1ccc2ncccc2c1)NO	–	0.107 µM	–	–
O=C(CCCCC[C@H](NC(=O)c1ccccc1)C(=O)NCc1ccccc1)NO	0.093 µM	1.04 µM	–	–
O=C(CCCCC[C@H](NC(=O)c1ccc2ccccc2n1)C(=O)Nc1ccccc1)NO	0.01 µM	0.033 µM	–	–
O=C(CCCCC[C@H](NC(=O)c1ccc2ccccc2n1)C(=O)NCc1ccccc1)NO	0.0513 µM	0.374 µM	–	–
O=C(CCCCC[C@H](NC(=O)c1ccccc1)C(=O)Nc1cccc2cccnc12)NO	0.0094 µM	0.043 µM	>=50%	<20%
O=C(CCCCC[C@H](NC(=O)OCc1ccccc1)C(=O)Nc1ccccc1)NO	0.018 µM	0.102 µM	–	–
O=C(CCCCC[C@H](NC(=O)c1ccccc1)C(=O)Nc1ccccc1)NO	0.0121 µM	0.073 µM	–	–
O=C(CCCCC[C@H](NC(=O)c1ccccn1)C(=O)NCc1ccccc1)NO	0.12 µM	3.42 µM	–	–
O=C(CCCCC[C@H](NC(=O)c1ccc2ccccc2n1)C(=O)Nc1cccc2cccnc12)NO	–	0.165 µM	–	–

Second part, led by results:

IC50 [2]	SMILES	IC50 [1]	TGI [3]	Activity [4]
0.0077 µM	O=C(CCCCC[C@H](NC(=O)OCc1ccccc1)C(=O)Nc1ccc2ncccc2c1)NO	0.11 µM	–	–
0.0035 µM	O=C(CCCCC[C@H](NC(=O)c1ccccc1)C(=O)Nc1ccc2ncccc2c1)NO	0.09 µM	–	–
0.0111 µM	O=C(CCCCC[C@H](NC(=O)c1ccccn1)C(=O)Nc1ccccc1)NO	0.25 µM	>=50%	<20%
0.0013 µM	O=C(CCCCC[C@H](NC(=O)c1ccccn1)C(=O)Nc1ccc2ncccc2c1)NO	0.756 µM	–	–
0.004 µM	O=C(CCCCC[C@H](NC(=O)c1ccccn1)C(=O)Nc1cccc2cccnc12)NO	0.367 µM	–	–
